# Experimental data taken from patent US20150328157A1, “APPLICATION OF SILICON DIOXIDE AEROGEL AS NANO-DRUG CARRYING SYSTEM IN PHARMACY” (GRADUATE SCHOOL AT SHENZHEN, TSINGHUA UNIVERSITY, priority 2012, published 2015).
# Assay: Bioavailability of nanosized paclitaxel oral dosage form in rat bodies (plasma paclitaxel by HPLC)
# Format: in vivo, SD rats
# Conditions: male, SD, one-time intragastric administration 40 mg/kg
# Experimental: Chromatographic conditions: Elite SinoChrom 300A ODS-AP 5 nm 4.6×250 mm Mobile phase: methanol:water:acetonitrile=23:41:36; flow rate: 1.0 ml/min; detection wavelength: 227 nm; and sample size: 20 μl.
# Preparation of an internal standard solution: weighing about 10 mg of a diazepam control product, precisely weighing, putting into a 100 ml measuring flask, dissolving with methanol, diluting to the scale and shaking up to obtain an internal standard stock solution with the concentration of 100 μg/ml. An appropriate amount of the stock solution was precisely weighed, diluted with methanol to prepare 10 μg/ml of internal standard control product solution and preserved in the refrigerator at 4° C. for later use.
# 100 ul of plasma sample was taken and put into an EP tube, 5 μl (10 μg/ml) and 40 μl of NaHCO3(1 mol/L) was added, whirling was performed for 1 min, 1 ml of an extraction solvent, namely ethyl ether, was added, whirling was performed for 2 min, centrifugation was performed at 3500 r/min for 10 min, supernatant fluid was taken and blow-dried under air flow of 40° C., the residue was dissolved in 40 μl of mobile phase, whirling was performed for 1 min, centrifugation was performed at 3500 r/min for 10 min, and then 20 μl of supernatant fluid was taken for sample injection and analysis. […]
structure (smiles),measurement,value
CC(=O)O[C@H]1C(=O)[C@@]2(C)[C@H]([C@H](OC(=O)c3ccccc3)[C@]3(O)C[C@H](OC(=O)[C@H](O)[C@@H](NC(=O)c4ccccc4)c4ccccc4)C(C)=C1C3(C)C)[C@]1(OC(C)=O)CO[C@@H]1C[C@@H]2O [paclitaxel],AUC,4890 ng·h/mL
